# Patent US8222414B2, “Indole compounds as an inhibitor of cellular necrosis” (LG Life Sciences Ltd., priority 2007, dated 2012)
# pEC50: −log10 of the molar value.
# Experiments:
# Format in all cases: cell-based
# [1] = tested on: primary hepatocytes isolated from rats; test: Hepatocyte protective effect against substances deriving hepatocyte toxicity (WST-1 cell viability); settings: for pEC50: Rattus norvegicus, Hepatocyte, viability after 24-48 h, WST-1; for viability: primary rat hepatocytes
# Protocol: Various endogenous/exogenous attacks on the cells trigger the mechanisms of cell death which is broadly classified into two types, i.e. apoptosis or necrosis. Using these cell death mechanisms, in the present experimental example, primacy hepatocytes isolated from rats were treated with drugs which were clinically shown to result in serious side-effects of hepatocyte toxicity or various chemicals which derive cell death, and the compounds synthesized in the Examples were estimated for their hepatocyte protective effects, after 24-48 h. The substances used to derive hepatocyte death include CCl4, ActD, H2O2, doxorubicin, anti-Fas Ab/Actinomycin D, acetaminophen, EtOH, CdCl2, palmitate, stearate, cyclophosphamide, terfenadine, diclofenac, simvastatin, and adefovir. Primary hepatocytes were isolated using the method of Seglen P O (Experimental Cell Research 74 (1972) pp 450-454). Briefly, hepatocytes were isolated according to the two-step collagenase perfusion method, and dead cells were removed by low speed (500 rpm) centrifugation for 10 min using percoll gradient (Kreamer B L etc, In Vitro Cellular & Developmental Biology 22 (1986) pp 201-211). During this step, the viability of cells was maintained 90% or above. The cells were suspended in HepatoZYME media (Gibco BRL), and the number of cells was counted. 1.5×10^4 cells in 100 μl were placed into the collagen-coated 96-well plate (BD biocoat), and adhered on the bottom for 3-4 h.
# In order to assess the hepatocyte protective effect, above adhered cells were pretreated with the Example compounds for 30 min. […] 30 min after the treatment by compounds, cells were treated by the substances deriving hepatocyte death or hepatotoxic drugs at the concentrations indicated in Table 1. After 24-48 h, the viability of cells was determined to estimate the hepatocyte protective effects. The viability of cells was determined using WST-1 (MK-400, […]) method by the absorbance at 440 nm. Hepatocyte protective effects of the Example compounds were represented by “EC50” which was calculated from measured values. “EC50” herein means the concentration of the compound at which 50% of maximum protective effect is observed in the experiment.
# [2] = tested on: primary hepatocytes isolated from rats; test: Cell protective effects against doxorubicin in hepatocytes (WST-1 cell viability); settings: Hepatocyte; primary rat hepatocytes pretreated with compound for 30 min, then doxorubicin; viability by WST-1 after 24-48 h
# Outline: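 Rat primary hepatocytes from two-step collagenase perfusion were pretreated for 30 min with compound: 5-step 2- or 3-fold series from 30, 10 or 1 µM, 0.2% DMSO. Doxorubicin or another hepatotoxicant (e.g., CCl4, acetaminophen, H2O2) was then added. Viability after 24–48 h was read by WST-1 (A440), and EC50 was taken as half-maximal protection.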
# [3] = tested on: SK-N-MC cells; test: Protective effect when tBHP was treated on brain cells (LDH assay); settings: Homo sapiens, tBHP 400 uM, 6 h
# Protocol: In order to assess the protective effect on brain cells, 2×10^4 brain cells were distributed into the 96-well plate using DMEM media (Gibco, 10% FBS), and incubated for 24 h. The Example compounds were serially diluted by 3-fold to the final concentration of 30, 10, 3, 1, 0.3, 0.1 uM, by which each well was treated for 1 h. Cells were treated with tBHP at the final concentration of 400 uM, and incubated for 6 h. 50 uL of media was taken from each well to proceed with LDH assay (Promega). In LDH assay, 50 uL of media was mixed with 50 uL of assay solution. After the reaction for 30 min at room temperature, absorbance was measured at 490 nm using SpectraMax (Molecular Device).
# [4] = tested on: Linm5F cells; test: Protective effect when tBHP was treated on pancreatic cells (SRB method); settings: Pancreatic beta cell, tBHP 400 uM, 5 h
# Protocol: (§1) In order to determine the protective effect on pancreatic cells, Linm5F cells, a sort of the beta cells, were distributed into the 96-well plate in the amount of 2×10^4 cells/well, and incubated for 24 h. The Example compounds were serially diluted by 3-fold to the final concentration of 30, 10, 3, 1, 0.3, 0.1 uM, by which each well was treated for 1 h. Cells were treated with tBHP at the final concentration of 400 uM, and further incubated for 5 h. Protective effects were determined using SRB (Sulforhodamine B Protein) method in which total amount of cellular protein is stained. Briefly, cells were incubated for 5 h, 50 uL of 4% formaldehyde solution was added to each well to fix the cells, and stored for about 30 min at room temperature. After discarding the media, each well was washed with distilled water 2-3 times, and the plate was dried in an oven at 50°. 50 uL of SRB solution was added to each well, and placed for about 30 min at room temperature. After removing SRB solution, the plate was washed with 1% acetic acid solution 2-3 times. After drying the plate in an oven at 50°, 100 uL of 10 mM Tris was added to elute SRB which was staining the intracellular protein.
# [5] = tested on: H9C2 cells; test: Protective effect when tBHP was treated on cardiac cells (SRB method); settings: Rattus norvegicus, tBHP 400 uM, 2 h, H9C2 cardiomyocytes
# Protocol: as §1, with “After drying the plate in an oven at 50°, 100 uL of 10 mM Tris was added to elute SRB which was staining the intracellular protein.” left out
# In order to assess the protective effect on cardiac cells, H9C2 cells were distributed in the amount of 1.5×10^4 cells/well, and incubated for 24 h. […] Protective effect of each compound was determined using the same SRB method as in Linm5F of above mentioned 2).
smiles,measurement,setting,value
"O=C(O)C[C@@H]1CSC(c2cc3cc(Cl)cc(NC4CCCC4)c3[nH]2)=N1 [Example 4, [(R)-2-(5-chloro-7-cyclopentylamino-1H-indol-2-yl)-4,5-dihydro-thiazol-4-yl]-acetic acid]",pEC50,[1]; simvastatin 16 μM,> 5.00
same,pEC50,[1]; terfenadine 10 μM,6.40
same,viability,"[1]; adefovir 100 μM, compound at 3-30 uM",50%
same,viability,"[1]; diclofenac 350 μM, compound at 3-100 uM",40%
same,pEC50,[2],6.52
same,pEC50,[3],≥ 7.00
"O=C(O)C[C@H]1CSC(c2cc3cccc(NC4CCCC4)c3[nH]2)=N1 [Example 14, [(S)-2-(7-cyclopentylamino-1H-indol-2-yl)-4,5-dihydro-thiazol-4-yl]-acetic acid]",pEC50,[2],6.72
same,pEC50,[4],6.82
"Cc1cc(NCC2CCOCC2)c2[nH]c(C3=N[C@@H](CC(=O)O)CS3)cc2c1 [Example 22, [(S)-2-(5-methyl-7-(tetrahydropyran-4-yl)methylamino-1H-indol-2-yl)-4,5-dihydro-thiazol-4-yl]-acetic acid]",pEC50,[2],6.60
same,pEC50,[4],6.70
same,pEC50,[5],6.77
"O=C(O)C[C@@H]1CSC(c2cc3cc(Oc4ccccc4)cc(NC4CCCC4)c3[nH]2)=N1 [Example 85, [(R)-2-(5-phenoxy-7-cyclopentylamino-1H-indol-2-yl)-4,5-dihydro-thiazol-4-yl]-acetic acid]",pEC50,[2],6.40
same,pEC50,[5],6.15
"Cc1cc(NCC2CCOCC2)c2[nH]c(C3=N[C@@H](CCN4CCNC(=O)C4)CS3)cc2c1 [Example 253, (5-Methyl-2-{(S)-4-[2-oxopiperazin-4-yl-ethyl]-4,5-dihydro-thiazol-2-yl}-1H-indol-7-yl)-(tetrahydropyran-4-yl)methyl-amine]",pEC50,[2],6.70
"Clc1cc(NC2CCOCC2)c2[nH]c(C3=N[C@@H](CCN4CCN(c5ccccn5)CC4)CS3)cc2c1 [Example 254, (5-Chloro-2-{(S)-4-[1-(pyridin-2-yl)piperazin-4-yl-ethyl]-4,5-dihydro-thiazol-2-yl}-1H-indol-7-yl)-(tetrahydropyran-4-yl)-amine]",pEC50,[2],6.00
